Where “and” joins values, the source holds several entries; their conditions need not be identical. Equal entries are not always repeated. Where two headings read alike, the source gives them in different places. No end group written: not given here.

The target in data set [1] is T1, TtSlyDFL (full-length SlyD from Thermus thermophilus) (Thermus thermophilus, UniProt Q5SLE7).
T1 sequence (Q5SLE7 1-149): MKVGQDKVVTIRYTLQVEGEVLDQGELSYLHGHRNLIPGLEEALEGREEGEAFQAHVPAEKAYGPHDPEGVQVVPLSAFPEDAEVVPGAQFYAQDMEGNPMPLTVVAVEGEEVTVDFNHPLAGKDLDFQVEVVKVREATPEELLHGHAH
The data set is described as follows: ITC binding of peptides to full-length TtSlyD. The settings on record: for ΔH1 / –T · ΔS1 / N1: site 1 (IF domain).
Description: ITC measurements were performed on iTC200 or VP-ITC instruments (GE Healthcare, Chalfont St. Giles, UK). The calorimetric cell (with a total cell volume of 220 μl in the iTC200, or 1400 μl in the VP-ITC) contained 50–200 μM TtSlyDFL dissolved in 20 mM HEPES, 100 mM NaCl, pH 7.5. Peptide samples of 700–2000 μM were titrated into the cell at 20 °C (VP-ITC) or 25 °C (iTC200). The heat generated after each ligand injection was obtained by integration of the calorimetric signal. Resulting binding isotherms were analyzed according to a one-site or two-site binding site model using the Origin software (OriginLab Corp., Northampton, MA, USA).

Data set [2] deals with TtSlyDΔIF (IF domain replaced by the flap loop from human FKBP12) (Thermus thermophilus, UniProt Q5SLE7). In kind it is binding. The note with it: ITC one-site model (FKBP domain), 25 °C; for Kd: read-out: KD2.
The subject of the next data set is TtSlyDFL. The data set is described as follows: Michaelis-Menten analysis with S2-P25A peptide by NMR lineshape analysis. It is filed as biochemical, Thermus thermophilus. The note with it: 25 °C. As for the experimental part:
(§1) Having validated the method, we next turned to the longer unmodified peptides of interest here. […] The ^13C shifts of proline in the S2-P25A peptide show the same characteristics as an isolated proline amino acid. […] We determined apparent rate constants for TtSlyDFL and TtSlyDΔIF as a function of peptide concentration (Fig. 7b). The resulting kcat/KM value was 368 ± 4 μM^–1s^–1 for TtSlyDFL, which is a factor of 100–1000 higher compared to results obtained previously for various members of the SlyD family using tetrapeptides or unfolded proteins, and even exceeds those generally reported for FKBPs and other PPIases. […] However, the difference in kcat/KM between TtSlyDFL and TtSlyDΔIF is much smaller than what has been observed using protein substrates, and may simply relate to the lower binding affinity of TtSlyDΔIF relative to TtSlyDFL (in this scenario, KM would be larger for TtSlyDΔIF). In the case of TtSlyDFL we could separate the two parameters, yielding kcat = (0.7 ± 0.1) 10^6 s^–1 and KM = 2.0 ± 0.4 mM.
(§2) Lineshape analysis was performed using MATLAB.
(§3) Activity studies using the 15-residue-long S2-P25A peptide utilized a sample with a uniformly ^13C-labeled proline residue. ^1H–^13C HSQC experiments were used to separate the peptide signals in two dimensions, such that the cis and trans forms could both be detected without overlap. […] One-dimensional ^1H slices of the β and γ protons for the cis and trans forms were extracted from the two-dimensional spectrum, and lineshape analysis was applied. Michaelis-Menten-like studies were performed using a fixed concentration of TtSlyDFL of 0.2 μM and peptide concentrations ranging from 10 to 1000 μM.

The test system of a further data set is TtSlyDΔIF. Described as above. In kind it is biochemical, Thermus thermophilus. The settings on record: 25 °C. As for the experimental part: as §1, §2, §3
Data set [3] can be described thus: Relative population of the cis form of the peptide by NMR. The note with it: free S2-P25A peptide with 13C-labeled proline (P29); comparison of cis and trans NMR intensities; 25 °C. It is filed as physicochemical. As for the experimental part: as §1
Activity studies using the 15-residue-long S2-P25A peptide utilized a sample with a uniformly ^13C-labeled proline residue. ^1H–^13C HSQC experiments were used to separate the peptide signals in two dimensions, such that the cis and trans forms could both be detected without overlap. […]

[4] abbreviates: ITC two-site model, site 2 (FKBP domain) stoichiometry, 25 °C.
[5] abbreviates: ITC two-site model, site 2 (FKBP domain), 25 °C.
Where [6] appears, read: ITC two-site model, 20 °C, wild-type TtSlyDFL.
[7] abbreviates: ITC two-site model, site 2 (FKBP domain), 20 °C, wild-type TtSlyDFL.
Setting [8] is: ITC single binding site model, 25 °C.
The mark [9] stands for this setting: ITC two-site model, 25 °C, 5 % DMSO.
The mark [10] stands for this setting: ITC two-site model, site 2 (FKBP domain), 25 °C, 5 % DMSO.
[11] abbreviates: S2-P25A peptide as substrate, NMR lineshape analysis.

In the case of GHQTRYWNPKMKPFI-NH2 [S2-minus1], in data set [1] (ITC two-site model, 25 °C), the ΔH1 entry is recorded as “–16.6 ± 0.12 kcal/mol” and the “–T · ΔS1” value worked out at 8.2 kcal/mol. In data set [1] (setting [4]), this substance yielded an N2 of 0.82 ± 0.02. Besides, in data set [1] (setting [5]), the ΔH2 entry is reported as “–11.1 ± 0.29 kcal/mol” and the “–T · ΔS2” value was 4.1 kcal/mol.

On to KAGVHFGHQTRYWNP-NH2 [S2-minus3], for which, in data set [1] (ITC two-site model, 25 °C), the ΔH1 entry is “–17.0 ± 0.73 kcal/mol” and the “–T · ΔS1” value is 9.4 kcal/mol. Moreover, in data set [1] (setting [4]), the N2 came to 1.17 ± 0.06. For the same substance, in data set [1] (setting [5]), the ΔH2 result is reported as “–2.1 ± 1.41 kcal/mol” and the “–T · ΔS2” value is “–4.8 kcal/mol”.

As for KMKPFIFGARNKVHI-NH2 [S2-plus2], in data set [1] (ITC two-site model, 25 °C), the ΔH1 entry was “–13.1 ± 0.14 kcal/mol” and the “–T · ΔS1” value was 3.9 kcal/mol. The substance further showed an N2 in data set [1] (setting [4]) of 0.75 ± 0.04. In data set [1] (setting [5]), the ΔH2 result is “–8.4 ± 0.39 kcal/mol” and the “–T · ΔS2” value is given as 1.2 kcal/mol.

For RYWNPKMKPFIFG-NH2 [S2-short2], in data set [1] (setting [6]), the N1 is 0.72 ± 0.03, the ΔH1 result is reported as “–9.7 ± 0.21 kcal/mol” and the “–T · ΔS1” value was 0.9 kcal/mol. For the same substance, in data set [1] (setting [7]), the N2 stood at 0.91 ± 0.02, the ΔH2 entry is recorded as “–5.5 ± 0.34 kcal/mol” and the “–T · ΔS2” value is given as “–1.9 kcal/mol”.

In turn, SGLVTRGS-NH2 [SlpA linker P5T] gave a Kd in data set [1] of 130 ± 20 µM. In addition, in data set [1] (setting [8]), the N2 is listed as 1.76 ± 0.12, the ΔH2 result is listed as “–0.9 ± 0.10 kcal/mol” and the “–T · ΔS2” value was “–4.4 kcal/mol”.

As for TRYANPKMKPFIFGA-NH2 [S2-W23A], in data set [1] (ITC two-site model, 25 °C), the ΔH1 entry is reported as “–15.8 ± 0.24 kcal/mol” and the “–T · ΔS1” value is given as 7.5 kcal/mol. This substance yielded an N2 in data set [1] (setting [4]) of 0.91 ± 0.40. Moreover, in data set [1] (setting [5]), the ΔH2 entry was “–2.3 ± 0.97 kcal/mol” and the “–T · ΔS2” value is given as “–4.2 kcal/mol”. In data set [2], the N2 was 0.77 ± 0.02, the ΔH2 entry is recorded as “–8.1 ± 0.25 kcal/mol”, the “–T · ΔS2” value was found to be 1.6 kcal/mol and the Kd was determined as 17.1 ± 1.13 µM.

Consider TRYWNAKMKEFIFGA-NH2 [S2-P25A/P29E], for which, in data set [1] (setting [9]), the N1 is reported as 1.13 ± 0.03, the ΔH1 result is on record as “–14.1 ± 0.33 kcal/mol” and the “–T · ΔS1” value was 6.1 kcal/mol. Further, in data set [1] (setting [10]), the N2 was 1.09 ± 0.24, the ΔH2 entry is “–5.9 ± 1.91 kcal/mol” and the “–T · ΔS2” value was “–0.1 kcal/mol”. In data set [2] (5 % DMSO), the N2 is 0.84 ± 0.06, the ΔH2 entry is recorded as “–6.3 ± 0.58 kcal/mol”, the “–T · ΔS2” value is on record as 0.1 kcal/mol and the Kd came out at 29 ± 4.62 µM.

Regarding TRYWNAKMKPFIFGA-NH2 [S2-P25A], in data set [1] (ITC two-site model, 25 °C), the ΔH1 entry is listed as “–16.6 ± 0.16 kcal/mol”. The “–T · ΔS1” value in data set [1] (ITC two-site model, 25 °C) is listed as 7.2 kcal/mol. In addition, the N2 in data set [1] (setting [4]) worked out at 1.02 ± 0.04; in data set [2], 0.91 ± 0.01. The results for the ΔH2 entry in data set [1] (setting [5]) and in data set [2] were “–8.5 ± 0.82 kcal/mol” and “–11.7 ± 0.24 kcal/mol”, respectively. Further, the “–T · ΔS2” value in data set [1] (setting [5]) was 1.5 kcal/mol; in data set [2], 5.0 kcal/mol. Besides, the Kd in data set [2] came out at 12.1 ± 0.76 µM. Also, the kcat/KM is 3.68 ± 0.04 10^8 M^−1s^−1 and 3.7 10^8 M^−1s^−1 with TtSlyDFL (S2-P25A as substrate (cis concentration), 0.2 μM enzyme, Michaelis-Menten fitting); 368 ± 4 μM^–1s^–1 in the data set with TtSlyDFL (setting [11]); 2.5 10^8 M^−1s^−1 in the data set with TtSlyDΔIF (S2-P25A as substrate (cis concentration), 0.2 μM enzyme); 248 ± 1 μM^–1s^–1 with TtSlyDΔIF (setting [11]). In addition, the kcat with TtSlyDFL (S2-P25A as substrate) is reported as 0.7 ± 0.1 10^6 s^–1. Besides, in data set [3], the “relative population of the cis form (cis content)” value came to 14.5 ± 1%.

With TRYWNNKMKNFIFGA-NH2 [S2-P25N/P29N], in data set [1] (setting [9]), the N1 is 0.93 ± 0.02, the ΔH1 result is recorded as “–16.8 ± 0.12 kcal/mol” and the “–T · ΔS1” value is recorded as 7.8 kcal/mol. In data set [1] (setting [10]), the N2 came out at 1.18 ± 0.18, the ΔH2 result was “–2.3 ± 0.33 kcal/mol” and the “–T · ΔS2” value is given as “–4.4 kcal/mol”.

As for TRYWNPKMKEFIFGA-NH2 [S2-P29E], in data set [1] (ITC two-site model, 25 °C), the ΔH1 result was “–15.8 ± 0.16 kcal/mol” and the “–T · ΔS1” value is 7.2 kcal/mol. For the same substance, the N2 in data set [1] (setting [4]) is recorded as 1.02 ± 0.04. Besides, in data set [1] (setting [5]), the ΔH2 entry is “–2.7 ± 0.48 kcal/mol” and the “–T · ΔS2” value is “–4.5 kcal/mol”. Besides, in data set [2], the N2 came out at 0.69 ± 0.03, the ΔH2 entry is listed as “–10.8 ± 0.27 kcal/mol”, the “–T · ΔS2” value came to 4.2 kcal/mol and the Kd was 13.8 ± 0.88 µM.

With VHFGHQTRYWNPKMK-NH2 [S2-minus2], in data set [1] (ITC two-site model, 25 °C), the ΔH1 entry is given as “–16.1 ± 0.21 kcal/mol” and the “–T · ΔS1” value came to 8.1 kcal/mol. For the same substance, in data set [1] (setting [4]), the N2 is given as 0.99 ± 0.06. Besides, in data set [1] (setting [5]), the ΔH2 result is “–4.3 ± 0.92 kcal/mol” and the “–T · ΔS2” value is “–2.3 kcal/mol”.

Turning to WNPKMKPFIFGARNK-NH2 [S2-plus1], in data set [1] (ITC two-site model, 25 °C), the ΔH1 result was “–11.4 ± 0.13 kcal/mol” and the “–T · ΔS1” value is on record as 2.3 kcal/mol. In data set [1] (setting [4]), this substance yielded an N2 of 0.94 ± 0.03. Further, in data set [1] (setting [5]), the ΔH2 result was “–7.8 ± 0.23 kcal/mol” and the “–T · ΔS2” value came out at 0.4 kcal/mol.

YWNPKMKPFIF-NH2 [S2-short4]: in data set [1] (setting [6]), the N1 is recorded as 0.73 ± 0.24, the ΔH1 result is listed as “–10.7 ± 2.33 kcal/mol” and the “–T · ΔS1” value was 2.7 kcal/mol. Besides, in data set [1] (setting [7]), the N2 was 0.87 ± 0.23, the ΔH2 entry was “–6.3 ± 3.02 kcal/mol” and the “–T · ΔS2” value is recorded as “–0.9 kcal/mol”.

For the origin of these results see paper PMC5034536, “Molecular insights into substrate recognition and catalytic mechanism of the chaperone and FKBP peptidyl-prolyl isomerase SlyD” (BMC Biology, 2016).
